{"source": "patent US6630125B2", "about": "“18F-labeled choline analogs” (priority 2000, dated 2003)", "key": {"[1]": {"test_system": "PC-3 human prostate cancer cells", "assay": "Accumulation of radiotracers by cultured PC-3 cells", "format": "cell-based", "description": "The incubation media utilized for the experiments differed according to the cancer cell type (Table 1). On the day of the study, the medium was refreshed using a volume of 1 ml in each well. Cells were incubated in control conditions or with the addition of metabolic and growth factor receptor inhibitors to test the sensitivity of uptake of the radiotracers to specific inhibitions. […] Following a 30-min incubation period, the radiotracers (e.g., FDG or FCH) were added (˜2 µCi/well) and the cells were incubated for 2 hr. The cells were washed three times with phosphate buffered saline solution, released from the plates by briefly incubating with 0.05% trypsin in DMEM, transferred to test tubes, and counted for F-18 radioactivity in a gamma counter. The amount of radioactivity in the cells was normalized by the dose administered to each well.\nThe present work studies the structure-activity relationships for purposes of optimization of the molecule for imaging prostate cancer. […] A number of structural analogs of choline were labeled as N-[^18F]fluoromethyl derivatives via the intermediate [^18F]fluorobromomethane (see Table 3). Uptake of the radiotracers was assessed in cultured PC-3 human prostate cancer cells and in a murine PC-3 xenograft model."}, "[2]": {"test_system": "mice with PC-3 xenografts"}, "[3]": {"assay": "Human dosimetry estimation (MIRDOSE 3.1 from mouse biodistribution)", "description": "Urinary radioactivity was assumed to be retained within the urinary bladder. […] Since urinary excretion patterns in rodents are commonly more rapid than in the human, the assumption of no urinary clearance of radioactivity was precautionary. Bone uptake was distributed at the bone surfaces. The 70 kg adult male ORNL phantom was used since this would best reflect the primary study population (prostate carcinoma)."}, "[4]": {"assay": "Stability of the FCH preparation (HPLC)", "format": "physicochemical", "conditions": "room temperature for 7 hr, cation-exchange HPLC", "description": "(§1) The stability of FCH in its prepared form was evaluated by monitoring the radiochemical purity using the HPLC system described above. […] After an incubation of 2 hr at 37 C, the plasma was separated, the plasma proteins precipitated by adding two volumes of methanol, and the supernatant was analyzed for intact FCH by cation-exchange HPLC. […] FCH was also found to be stable in a blood samples taken from healthy human subjects (n=5)."}, "[5]": {"assay": "Stability of FCH in human whole blood", "format": "in vitro ADME", "conditions": "2 hr, 37 C, blood of healthy human subjects (n=5)", "description": "as §1"}, "[6]": {"test_system": "patients with brain tumors", "assay": "PET imaging in patients with brain tumors", "format": "in vivo, human", "conditions": "5 patients with resected brain tumors, after injection", "description": "(§2) In breast cancer patients, whole-body PET scans were obtained, beginning at 10 min post-administration of FCH. In patients with brain tumors, PET scans of the brain were obtained, beginning at 5 min post-administration of FCH.\nPET imaging was performed in 5 patients with resected brain tumors for evaluation of recurrence of cancer. Dynamic images were obtained over the brain for the first 15 min after injection of FCH (2.5-6 mCi). Transmission scans were acquired before injection of radiotracer for purposes of attenuation correction. […] Radioactivity concentration in normal brain tissue was very low, allowing excellent delineation of the tumor. […] (See FIG. 12)"}, "[7]": {"test_system": "patients with breast cancer", "assay": "PET imaging in patients with breast cancer", "format": "in vivo, human", "conditions": "person, metastatic breast cancer", "description": "as §2\nThirteen patients with metastatic breast cancer and one patient with both primary and metastatic breast cancer were each imaged with both FCH-PET and FDG-PET within a period of less than one month.\nA person had undergone re-excision of right breast intraductal carcinoma 4 yr prior, then right modified radical mastectomy 3 yr prior followed by tamoxifen chemotherapy. Six months prior to the PET scans, metastatic breast cancer was detected by palpation (right breast sternal mass) and CT (mediastinal and hilar adenopathies, mass in right anterior pelvis). Tamoxifen therapy was stopped. […] Uptake of FCH was also observed in the corresponding tumors: sternal mass (SUV=14.6), mediastinal and hilar adenopathies (SUVs˜8.5), pelvic mass (SUV=6.5). […] Smaller metastases were indicated on the FCH-PET scan in the right chest wall and left lung that were not seen on the FDG-PET scan. Concerning the anterior pelvic tumor, there was observed a homogenous distribution of FDG across the tumor in the FDG-PET scan, whereas the FCH was preferentially distributed on the periphery of the tumor."}, "[8]": {"conditions": "calculated from mice biodistribution data"}}, "note": "Entries after “also recorded” stand apart in the source; their conditions may differ. Like-named read-outs stand apart in the source and are kept apart here."}
{"smiles": "C[N+](C)(CF)CCO.[Cl-]", "note": "[FCH, dimethylfluoromethyl-2-hydroxyethylammonium chloride]", "values": [{"measurement": "uptake in cultured PC-3 cells", "setting": "[1]", "value": "~2 %/hr/100,000 cells plated"}, {"measurement": "Uptake by PC-3 cancer cells, HC-3", "setting": "[1]; 5 mM hemicholinium-3", "value": "0.18 ± 0.02 % dose/2 hr/105 cells plated"}, {"measurement": "decrease in uptake by PC-3 cells with hemicholinium-3 (HC-3)", "setting": "[1]; HC-3 versus control", "value": 89, "unit": "%"}, {"measurement": "uptake of FCH relative to HARA-1", "setting": "[1]; PC-3 prostate cancer cells", "value": 3, "unit": "fold"}, {"measurement": "accumulation by cultured PC-3 cells compared with other tracers", "setting": "[1]; control conditions", "value": "similarly to CH"}, {"measurement": "Uptake by PC-3 cancer cells, Control", "setting": "[1]; control, 2 hr incubation", "value": "1.58 ± 0.18 % dose/2 hr/105 cells plated"}, {"measurement": "Uptake by PC-3 cells", "setting": "[1]; inhibitor HC-3 (hemicholinium-3, 5 mM)", "value": "0.160 ± 0.009 % dose/2 hr/10^5 cells plated"}, {"measurement": "Uptake by PC-3 cells", "setting": "[1]; inhibitor none", "value": "1.574 ± 0.033 % dose/2 hr/10^5 cells plated"}, {"measurement": "Uptake in Blood", "setting": "[2]; 10 min", "value": "2.7 ± 0.9", "unit": "% dose kg/100 g"}, {"measurement": "Uptake in Brain", "setting": "[2]; 10 min", "value": "0.8 ± 0.3", "unit": "% dose kg/100 g"}, {"measurement": "Uptake in Heart", "setting": "[2]; 10 min", "value": "15.5 ± 5.9", "unit": "% dose kg/100 g"}, {"measurement": "Uptake in Kidney", "setting": "[2]; 10 min", "value": "127.7 ± 27.6", "unit": "% dose kg/100 g"}, {"measurement": "Uptake in Liver", "setting": "[2]; 10 min", "value": "50.7 ± 15.3", "unit": "% dose kg/100 g"}, {"measurement": "Uptake in Lung", "setting": "[2]; 10 min", "value": "18.0 ± 5.3", "unit": "% dose kg/100 g"}, {"measurement": "Uptake in Prostate", "setting": "[2]; 10 min", "value": "6.6 ± 2.2", "unit": "% dose kg/100 g"}, {"measurement": "Uptake in Skeletal Muscle", "setting": "[2]; 10 min", "value": "4.4 ± 1.8", "unit": "% dose kg/100 g"}, {"measurement": "Uptake in Tumor", "setting": "[2]; 10 min", "value": "3.6 ± 0.6", "unit": "% dose kg/100 g"}, {"measurement": "Uptake in Blood", "setting": "[2]; 30 min", "value": "3.3 ± 0.2", "unit": "% dose kg/100 g"}, {"measurement": "Uptake in Brain", "setting": "[2]; 30 min", "value": "1.0 ± 0.2", "unit": "% dose kg/100 g"}, {"measurement": "Uptake in Heart", "setting": "[2]; 30 min", "value": "13.2 ± 2.6", "unit": "% dose kg/100 g"}, {"measurement": "Uptake in Kidney", "setting": "[2]; 30 min", "value": "116 ± 17", "unit": "% dose kg/100 g"}, {"measurement": "Uptake in Liver", "setting": "[2]; 30 min", "value": "56.7 ± 13.2", "unit": "% dose kg/100 g"}, {"measurement": "Uptake in Lung", "setting": "[2]; 30 min", "value": "17.1 ± 1.4", "unit": "% dose kg/100 g"}, {"measurement": "Uptake in Prostate", "setting": "[2]; 30 min", "value": "7.1 ± 2.1", "unit": "% dose kg/100 g"}, {"measurement": "Uptake in Skeletal Muscle", "setting": "[2]; 30 min", "value": "1.1 ± 1.0", "unit": "% dose kg/100 g"}, {"measurement": "Uptake in Tumor", "setting": "[2]; 30 min", "value": "7.1 ± 2.1", "unit": "% dose kg/100 g"}, {"measurement": "Uptake in Blood", "setting": "[2]; 60 min", "value": "1.5 ± 0.6", "unit": "% dose kg/100 g"}, {"measurement": "Uptake in Brain", "setting": "[2]; 60 min", "value": "0.8 ± 0.1", "unit": "% dose kg/100 g"}, {"measurement": "Uptake in Heart", "setting": "[2]; 60 min", "value": "12.7 ± 3.2", "unit": "% dose kg/100 g"}, {"measurement": "Uptake in Kidney", "setting": "[2]; 60 min", "value": "94.3 ± 31.0", "unit": "% dose kg/100 g"}, {"measurement": "Uptake in Liver", "setting": "[2]; 60 min", "value": "58.4 ± 40.6", "unit": "% dose kg/100 g"}, {"measurement": "Uptake in Lung", "setting": "[2]; 60 min", "value": "21 ± 4.4", "unit": "% dose kg/100 g"}, {"measurement": "Uptake in Prostate", "setting": "[2]; 60 min", "value": "7.1 ± 3.0", "unit": "% dose kg/100 g"}, {"measurement": "Uptake in Skeletal Muscle", "setting": "[2]; 60 min", "value": "4.1 ± 0.6", "unit": "% dose kg/100 g"}, {"measurement": "Uptake in Tumor", "setting": "[2]; 60 min", "value": "7.9 ± 5.0", "unit": "% dose kg/100 g"}, {"measurement": "tumor uptake", "setting": "[2]; PC-3 xenograft", "value": "~0.07", "unit": "% dose kg/g"}, {"measurement": "injected dose in the urinary bladder", "setting": "[2]; at 30 min", "value": 10, "unit": "%"}, {"measurement": "tumor:blood ratio", "setting": "[2]; at 60 min", "value": "5.3±2.4"}, {"measurement": "liver uptake compared with CH", "setting": "[2]; mouse, in vivo", "value": "lower"}, {"measurement": "uptake by normal brain compared with other tracers", "setting": "[2]; mouse, in vivo", "value": "one tenth that for FDG; also recorded: one half that of CH"}, {"measurement": "effective dose equivalent (EDE)", "setting": "[3]; 10 mCi administration", "value": 1.1, "unit": "rem"}, {"measurement": "largest organ dose (kidney)", "setting": "[3]; 10 mCi administration", "value": 8.1, "unit": "rads/rems"}, {"measurement": "Human radiation dose estimate, Heart", "setting": "[3]; calculated from mice FCH biodistribution data, 70 kg adult male phantom", "value": 0.046, "unit": "rads/mCi"}, {"measurement": "Human radiation dose estimate, Bladder wall", "setting": "[3]; [8]", "value": 0.049, "unit": "rads/mCi"}, {"measurement": "Human radiation dose estimate, Bone", "setting": "[3]; [8]", "value": 0.038, "unit": "rads/mCi"}, {"measurement": "Human radiation dose estimate, Brain", "setting": "[3]; [8]", "value": 0.0071, "unit": "rads/mCi"}, {"measurement": "Human radiation dose estimate, Kidney", "setting": "[3]; [8]", "value": 0.81, "unit": "rads/mCi"}, {"measurement": "Human radiation dose estimate, Liver", "setting": "[3]; [8]", "value": 0.30, "unit": "rads/mCi"}, {"measurement": "Human radiation dose estimate, Lung", "setting": "[3]; [8]", "value": 0.043, "unit": "rads/mCi"}, {"measurement": "Human radiation dose estimate, Muscle", "setting": "[3]; [8]", "value": 0.032, "unit": "rads/mCi"}, {"measurement": "Human radiation dose estimate, Ovaries", "setting": "[3]; [8]", "value": 0.039, "unit": "rads/mCi"}, {"measurement": "Human radiation dose estimate, Red marrow", "setting": "[3]; [8]", "value": 0.043, "unit": "rads/mCi"}, {"measurement": "Human radiation dose estimate, Testes", "setting": "[3]; [8]", "value": 0.028, "unit": "rads/mCi"}, {"measurement": "radiochemical purity after storage of the preparation", "setting": "[4]", "value": "> 99", "unit": "%"}, {"measurement": "stability in whole blood (HPLC)", "setting": "[5]", "value": "completely intact"}, {"measurement": "time to plateau of radiotracer concentration in the tumor", "setting": "[6]", "value": "≤ 5", "unit": "min"}, {"measurement": "SUV of pelvic tumor / pelvic mass", "setting": "[7]", "value": 6.5}, {"measurement": "SUV of sternal mass", "setting": "[7]", "value": 14.6}, {"measurement": "SUVs of mediastinal and hilar adenopathies", "setting": "[7]", "value": "~8.5"}]}
